Assay results reported in patent US20230312610A1, “Anti-Microbial Compositions” (5D HEALTH PROTECTION GROUP LTD, priority 2020, published 2023).
≈ marks a conversion by molar mass, not a printed value.

Columns and labels:
[1] = system: P. aeruginosa (ATCC 15442); experiment: MIC measurement (adapted CLSI M07-A11 broth dilution); assay type: cell-based; details: for MIC: P. aeruginosa (ATCC 15442), MHB, overnight 37° C.
Experimental: (§1) MIC measurements were performed using an adapted method described in the Clinical and Laboratory Standards Institute (CLSI) guidelines M07-A11. Compounds were serial diluted two-fold in Mueller Hinton Broth (MHB) in 96 well plates. A positive growth control and a negative growth control were also included in the well plates.
(§2) A colony suspension of S. aureus (ATCC 29213), P. aeruginosa (ATCC 15442) and C. albican was prepared by taking several colonies from a fresh agar plate and suspending them in MHB. The suspension was adjusted to 0.5 McFarland (~1 × 10^8 CFU/mL) and diluted 1:100. The inoculum was then added to wells at a final concentration of […]. Plates were incubated overnight at 37° C. The following day, MICs were determined as the lowest concentration that no growth could be visually observed.
(§3) An 80 mg/ml solution of T-EDTA was prepared by dissolving T-EDTA (99% pure, Acros Organics) in sterile distilled water. The pH of this solution was measured at 10.5, using a pH electrode. A 16 mg/ml solution of DTPA was prepared by dissolving DTPA (98%+ Acros Organics) in distilled water, and adjusting pH to 10.5 using the addition of sodium hydroxide.

[2] = system: S. aureus (ATCC 29213); experiment: as above; assay type: cell-based; details: for MIC: S. aureus (ATCC 29213), MHB, overnight 37° C.
Experimental: as §1, §2, §3

[3] = system: C. albican (ATCC 10231); experiment: as above; assay type: cell-based; details: MHB, overnight 37° C.
Experimental: as §1, §2

[4] = Concentration studies: loading of complex in aqueous solution; assay type: physicochemical
Experimental: 3.29 g silver nitrate was dissolved in 4.71 g demineralised water to produce a silver nitrate solution. 2.58 g copper sulphate pentahydrate was dissolved in 16.09 g demineralised water to produce a copper sulphate solution. Silver nitrate solution was added to the DPTA solution with vigorous stirring. […] Copper sulphate solution was added to the white dispersion.
2.39 g silver nitrate was dissolved in 4.61 g demineralised water to produce a silver nitrate solution. 2.08 g zinc sulphate monohydrate was dissolved in 15.92 g demineralised water to produce a zinc sulphate solution. […] Zinc sulphate solution was added to the white dispersion.
0.24 g silver nitrate (AgNO3) was dissolved in 3.26 g demineralised water to produce a silver nitrate solution. 0.66 g aluminium sulphate hexadecahydrate (Al2H32O28S3) was dissolved in 8.34 g demineralised water to produce an aluminium sulphate solution. […] Aluminium sulphate solution was added to the white dispersion.
Silver nitrate solution was formed by dissolving 0.24 g silver nitrate (AgNO3) in 3.26 g demineralised water.

[5] = clear aqueous solution as prepared

With O=C([O-])CN(CCN(CC(=O)[O-])CC(=O)[O-])CC(=O)[O-].[Ag+].[Ag+].[Cu+2] [Ag2Cu(EDTA), reference compound] as the molecule, how does the MIC [1] read?
The MIC was 6 µg/mL.

What about the MIC [2] of the same molecule?
Its MIC is 98 µg/mL.

Which MIC [3] does the source give for O=C([O-])CN(CCN(CC(=O)[O-])CC(=O)[O-])CCN(CC(=O)[O-])CC(=O)[O-].[Ag+].[Ag+].[Bi+3] [Ag2Bi(DTPA), Ag2Bi(DPTA)] here?
Its MIC is 11 µg/mL.

And the MIC [1]?
Its MIC is 94 µg/mL.

And the MIC [2]?
The MIC was 190 µg/mL.

What about the “theoretical concentration of the complex in solution” value [4, 5] of the same molecule?
Its value is 0.02 mol/kg.

What about the “theoretical total solids concentration” value [4, 5] of the same molecule?
The value was 9.7%.

With O=C([O-])CN(CCN(CC(=O)[O-])CC(=O)[O-])CCN(CC(=O)[O-])CC(=O)[O-].[Ag+].[Ag+].[Al+3] [Ag2Al(DTPA)] as the molecule, how does the MIC [3] read?
The MIC was 530 µg/mL.

And the MIC [1]?
The MIC was 450 µg/mL.

What about the MIC [2] of the same molecule?
Its MIC is 370 µg/mL.

And the “theoretical concentration of the complex in solution” value [4, 5]?
Its value is 2.9%.

What does the source list for Ag3Cu(DTPA) [Ag3Cu(DPTA)]?
MIC [1]: 1.6 µg/mL; increase in potency (MIC) versus prior art compound Ag2Cu(EDTA) ([1]; P. aeruginosa, versus Ag2Cu(EDTA)): approximately 4 fold; MIC [2]: 6 µg/mL; increase in potency (MIC) versus prior art compound Ag2Cu(EDTA) ([2]; S. aureus, versus Ag2Cu(EDTA)): approximately 16 fold; total soluble solids content of the solution ([4]; clear aqueous solution of the complex as prepared): 22.5 % w/w

For O=C(O)CN(CCN(CC(=O)O)CC(=O)O)CCN(CC(=O)O)CC(=O)O [DTPA, diethylenetriaminepentaacetic acid, reference compound], which MIC [1] is on record?
Its MIC is 2000 µg/mL (≈ 5.08 mM).

And the “increase in potency (MIC) compared to uncomplexed T-EDTA” value ([1]; P. aeruginosa, versus uncomplexed T-EDTA)?
Its value is 2.5 fold.

What about the MIC [2] of the same molecule?
Its MIC is 1000 µg/mL (≈ 2.54 mM).

What about the “increase in potency (MIC) compared to uncomplexed T-EDTA” value ([2]; S. aureus, versus uncomplexed T-EDTA) of the same molecule?
Its value is 1.25 fold.
